# Source: US6627632B2, “Compositions and methods for the treatment of anorectal disorders” (Cellegy Pharmaceuticals, Inc., priority 1998, dated 2003)
# Counter-ions that a name gives are not always drawn.
# Legend:
# [1] = test system: internal anal sphincter; test: rat internal anal sphincter (IAS) relaxation model: internal anal sphincter pressure (IASP) in anesthetized rats; assay type: in vivo; conditions: for relaxation of the rat IAS / reduction of IASP (summary statement in the description): rat IAS in vivo, no dose stated; for potentiation with NTG, comparison of PDE V inhibitors (summary): in vivo model, i.p. PDE V inhibitor plus NTG; for drop of IASP: subsequent dose of 1% nitroglycerin, morning after dibutyryl-cGMP
# Experimental: Male Sprague-Dawley rats (300-400 gm) were anesthetized with ketamine (90 mg/kg), xylazine (9 mg/kg) given intramuscularly and supplemented as needed with ⅓^rd dose. Rats were gently restrained on their backs on a heated surgical table (Harvard Apparatus) for the duration of the experiments. The diuretic effects of anesthesia was offset by rehydration with saline through an intraperitoneal implanted 24 gauge angiocatheter (VWR, San Francisco, Calif.). The constriction/relaxation measurement assembly included a Millar catheter/transducer (1.67 mm diameter.) connected to a Digi-Med Low Pressure Analyzer (Micro-Med) accurate for pressure measurements between −50 and 150 mmHg. The data were integrated and converted to waveforms with the Digi-Med System Integrator software. Blood pressure changes were monitored using an arterial catheter/transducer and a Digi-Med Blood Pressure Analyzer with the DMSI software. Respiratory changes were monitored using a mercury strain gauge/transducer, wrapped around the rib-cage of the rat, hooked up to a Digi-Med Analog Signal Analyzer along with the DMSI software. Drug delivery was accomplished through two Hamilton syringes with no dead space using PE 10 tubing adjacent to the catheter sensor.
# In this example, male Sprague-Dawley rats (250-300 g each) from Charles River were used. The rats were anesthetized intramuscularly with ketamine (90 mg/kg) and xylazine (9 mg/kg) and kept warm on a heated surgical table. All internal anal sphincter pressures (IASP) were measured with Millar catheter/transducers (MPC-500 mikrotip; Millar Instruments, Houston) on low pressure analyzers and blood pressure analyzers and recorded by DMSI software provided by Micro-Med (Louisville). Rats were provided with saline i.p. for rehydration due to the diuretic effects of the anesthesia and re-anesthetized as needed with approximately ⅓ the original dosage. In most experiments, the IASP was allowed to reach a stable baseline level prior to drug delivery. Drugs were delivered to the anal sphincter mainly via PE 20 tubing attached to the catheter(s) near the sensor(s) from 100 μl or 250 μl Hamilton syringes either manually or by infusion with a programmable Harvard automatic infusion pump.
# [2] = test system: vascular smooth muscle; test: in vitro assay of NTG-induced increases in cGMP levels in vascular smooth muscle
# Excerpt: (§1) One issue with chronic or subchronic therapy with nitric oxide or nitric oxide donors such as NTG is the extent of any tachyphylaxis or tolerance to the relaxant effect of nitric oxide. Clinical studies have shown that the human cardiovascular system develops tolerance to nitric oxide donors. […] Thus, it seemed likely that the IAS would also develop tolerance to the effects of nitric oxide upon repeated or prolonged dosing.
# [3] = cardiovascular tolerance to repeated NTG dosing, measured in vivo by mean arterial blood pressure; conditions: rat model, repeated dosing of NTG
# Excerpt: as §1
# [4] = test system: muscle of the IAS; test: in vitro study of NTG-induced increases in cGMP levels in the muscle of the IAS; conditions: compared with vascular smooth muscle
# [5] = in 5% DMSO/Acetone:Olive oil 1:1, infused continuously at 20 μg/hour
# [6] = continuously infused at 20 μg/hour in 5% dextrose
# [7] = in saline, infused continuously to the IAS at 20 μg/hour
# [8] = 10 mg in 100 μl 1M2P i.p. 30 minutes prior to NTG bolus doses (20 μg/min every 30 minutes)
smiles,measurement,setting,value
"CC(C)Cn1c(=O)n(C)c(=O)c2[nH]cnc21 [IBMX, 3-Isobutyl-1-methylxanthine]",effect on IASP,"[1]; in 5% DMSO/Acetone:Olive oil 1:1, infused at 200 μg/hour",significant and sustained drop in IASP
same,time at which the drop in IASP leveled off,"[1]; in 5% DMSO/Acetone:Olive oil 1:1, infused at 200 μg/hour, after initiation of the infusion",1 h
same,effect on IASP,[1]; [5],similar
"O=C(O)c1ccc(C2=C3C=CC(=N3)C(c3ccc(C(=O)O)cc3)=c3ccc([nH]3)=C(c3ccc(C(=O)O)cc3)c3ccc([n-]3)C(c3ccc(C(=O)O)cc3)c3ccc2[n-]3)cc1.[Cl-].[Mn+3] (stereo not shown) [MnTBAP, Mn (III) tetrakis (4-benzoic acid) porphyrin chloride]",NO enhancing activity,"[1]; rat IASP model, superoxide scavenger with NTG",did not demonstrate significant NO enhancing activity
Cn1c(=O)c2[nH]cnc2n(C)c1=O [Theophylline],effect on IASP,"[1]; continuously infused at 2 μg/hour in 5% dextrose, 3 hour experiment",minimal drop in average IASP
same,effect on IASP,[1]; [6],moderate drop in average IASP
same,effect on IASP,"[1]; continuously infused at 200 μg/hour in 5% dextrose, 4 hour experiment",dramatic and sustained drop in IASP
same,relaxation of the rat IAS / reduction of IASP (summary statement in the description),[1],relaxed the rat IAS
COc1ccc(CCN(C)CCCC(C#N)(c2ccc(OC)c(OC)c2)C(C)C)cc1OC (stereo not shown) [Verapamil],effect on IASP,[1]; [7],dramatic and sustained drop in IASP
CCCOc1ccccc1-c1nc2nn[nH]c2c(=O)[nH]1 [zaprinast],time at which duration of IASP depression by NTG peaked,"[1]; 10 mg i.p. 2.75 hours prior to NTG bolus doses, time after i.p. dose",3.5 to 4 h
same,duration of IASP depression by NTG (potentiation of NTG),[1]; [8],increasing duration of IASP depression with consecutive doses of NTG
same,duration of IASP depression by NTG (potentiation of NTG),[1]; 10 mg in 100 μl 1M2P i.p. 2.75 hours prior to NTG bolus doses (20 μg/min every 30 minutes),continued to increase with each NTG dose
same,reduction of mean IASP compared with vehicle treatment alone,"[1]; 20 μL of a 5% solution in 1-methyl-2-pyrrolidinone, over 32 minutes",21%
CC(C)(C)NCC(O)c1ccc(O)c(CO)c1 (stereo not shown) [salbutamol],short-term effect on IASP,"[1]; 200 μg in saline delivered to the IAS, alone",no short-term effects on the IASP
same,effect on IASP,[1]; [7],significant drop in IASP throughout the experiment
CC(C)NCC(O)c1ccc(O)c(O)c1 (stereo not shown) [isoproterenol],effect on IASP,"[1]; 100 μl 1M2P vehicle i.p., 30 minutes later continuous infusion in saline at 0.2 μg/hour (sub-threshold dose)",no significant effect on lowering IASP
same,effect on IASP,[1]; bolus dose of 200 μg to the IAS,dramatic drop in IASP
OCCN(CCO)c1nc(N2CCCCC2)c2nc(N(CCO)CCO)nc(N3CCCCC3)c2n1 [Dipyridamole],duration of depression of IASP due to NTG relative to the vehicle-treated rat,[1]; 10 mg in 100 μl 1M2P i.p. 50 minutes prior to NTG bolus doses (20 μg/min every 30 minutes),approximately twice
same,"potentiation with NTG, comparison of PDE V inhibitors (summary)",[1],less striking potentiation with NTG
"CCCC(=O)Nc1ncnc2c1ncn2[C@@H]1O[C@@H]2COP(=O)(O)O[C@H]2[C@H]1OC(=O)CCC [Dibutyryl cAMP, N6,2′-O-Dibutyryladenosine-3′,5′-cyclic monophosphate, sodium salt monohydrate]",effect on IASP,[1]; [7],minor depression in IASP
same,efficacy of cAMP analogs relative to each other,"[1]; rat model, aqueous-soluble analogs",more efficacious in the rat model than the 8-bromo derivative
COc1cc2nc(N3CCN(C(=O)c4ccco4)CC3)nc(N)c2cc1OC [prazosin],time after which the drop in IASP plateaued,"[1]; in 5% DMSO/Acetone:Olive oil 1:1, infused at 20 μg/hour",1 h
same,effect on IASP,[1]; [5],significant and sustained drop in IASP
"CCCCOc1cc(CC2CNC(=O)N2)ccc1OC (stereo not shown) [RO-20-1724, 4-(3-Butoxy-4-methoxybenzyl)-2-imidazolidinone]",effect on IASP,[1]; [5],minimal
CC(C)(C)NCC(O)c1cc(O)cc(O)c1 (stereo not shown) [terbutaline],effect on IASP,[1]; [7],steady and sustained decline in IASP
NCCc1cc(O)c(O)cc1O [6-hydroxydopamine],course of IASP by day 19,"[1]; 200 μg bolus in saline to the IAS each day for 5 days, day 19",partial recovery in IASP
same,average IASP below the original baseline pressure,"[1]; 200 μg bolus in saline to the IAS each day for 5 days, day 22",36%
same,course of IASP through day 16,"[1]; 200 μg bolus in saline to the IAS each day for 5 days, through day 16, 11 days after termination of treatment",continuous drop in IASP
same,period of prolonged reduction in IASP,[1]; following 5 daily topical doses of 200 μg in saline,≥ 3 week
COc1ccc([C@@H]2Sc3ccccc3N(CCN(C)C)C(=O)[C@@H]2OC(C)=O)cc1 [Diltiazem],effect on IASP,[1]; [7],dramatic and sustained drop in IASP
COc1ccc(C2CNC(=O)C2)cc1OC1CCCC1 (stereo not shown) [rolipram],effect on IASP,[1]; [5],significant drops in IASP followed by shorter recovery phases
"CCCC(=O)Nc1nc2c(ncn2C2OC3COP(=O)([O-])OC3C2OC(=O)CCC)c(=O)[nH]1.[Na+] (stereo not shown) [dibutyryl-cGMP, N2,2′-O-Dibutyrylguanosine-3′,5′-cyclic monophosphate, sodium salt]",reduction of mean IASP,"[1]; 20 μl of a 10% solution in saline applied to the anal canal, over 2.5 hours following treatment",45%
same,IASP still reduced,"[1]; 20 μl of a 10% solution in saline, by the following morning",34%
same,drop of average IASP,"[1]; 20 μl of a 10% solution in saline, over the last hour prior to terminating the experiment",60%
same,lowering of IASP,"[1]; further dose after IASP returned to pre-treatment levels, over the ensuing 3 hours and 10 minutes",15%
CC1=NS(=O)(=O)c2cc(Cl)ccc2N1 [Diazoxide],effect on IASP,[1]; [5],dramatic drop in IASP
same,relaxation of the rat IAS / reduction of IASP (summary statement in the description),[1],relaxed the rat IAS in vivo
"Clc1ccc2ncnc(NCc3ccc4c(c3)OCO4)c2c1 [MBCQ, 4-((3,4-(Methylenedioxy)benzyl)amino)-6-chloroquinazoline]",potentiation of NTG,[1]; [8],No noticeable potentiation of NTG
same,"potentiation with NTG, comparison of PDE V inhibitors (summary)",[1],did not demonstrate significant activity
Nc1cc(N2CCCCC2)nc(N)[n+]1[O-] [minoxidil],reduction of the IASP,"[1]; single 20 μl dose of a 4% solution in 62.5% propylene glycol, over 2.5 hours following treatment",64%
O=[N+]([O-])OCC(CO[N+](=O)[O-])O[N+](=O)[O-] [nitroglycerin],NTG-induced increases in cGMP levels,[2],attenuated dramatically
same,cardiovascular tolerance (mean arterial blood pressure),[3],develops with repeated dosing
same,effect on resting IASP,"[1]; 0.1% NTG in 5% dextrose/water with 1% propylene glycol, bolus doses to the IAS at 20 μg/min every 30 minutes",dramatic drop in resting IASP followed by a complete recovery to resting levels
same,nitrate related pressure tolerance,"[1]; continuous NTG administration, 20 μg/hour, 4 hours",no nitrate related pressure tolerance was noted
same,effect on resting IASP,"[1]; continuous infusion of NTG at 20 μg/hour, 4 hours",steady and sustained decline in resting IASP
same,duration of depression of IASP due to NTG,[1]; control: vehicle 1M2P 100 μl i.p. 30 minutes prior to NTG bolus doses (20 μg/min every 30 minutes),constant with each dose
same,duration of depression of IASP due to NTG,[1]; control: vehicle 1M2P 100 μl i.p. 50 minutes prior to NTG bolus doses (20 μg/min every 30 minutes),constant with each dose
same,duration of depression of IASP due to NTG,"[1]; control: vehicle 1M2P 100 μl i.p., first NTG dose after 2.75 hours (20 μg/min every 30 minutes)",consistent with each NTG dose
same,nitrate related pressure tolerance,"[1]; repeated NTG bolus administration, 20 μg/min every 30 minutes",no nitrate related pressure tolerance was noted
same,tachyphylaxis to the relaxant effect on the IAS,[1]; repeated or prolonged dosing in vivo,does not develop
same,drop of IASP,[1]; first 10 minutes following treatment,71%
same,drop of IASP,[1]; for 30 minutes,24%
same,NTG-induced increases in cGMP levels,[4],not as attenuated as those in vascular smooth muscle
"Cn1c(=O)c2c(ncn2CC(O)CO)n(C)c1=O (stereo not shown) [dyphylline, 7-(2,3-dihydroxypropyl) theophylline]",effect on IASP,[1]; [6],IAS relaxing effects
same,relaxation of the rat IAS / reduction of IASP (summary statement in the description),[1],reduce IASP
